Publication PMC6789782, “Safety Pharmacological Evaluation of the Coffee Component, Caffeoylquinic Acid, and Its Metabolites, Using Ex Vivo and In Vitro Profiling Assays” (Pharmaceuticals, 2019)
Several values for one entry are separate records, joined by “and”; a condition that tells them apart may be missing. Identical values can stand only once. Like-named read-outs stand apart in the source and are kept apart here.

Tests used:
5-HT3 = target: T1, 5-HT3 (Homo sapiens, UniProt P46098); assay: In vitro profiling, binding assay
T1 sequence (P46098 24-478): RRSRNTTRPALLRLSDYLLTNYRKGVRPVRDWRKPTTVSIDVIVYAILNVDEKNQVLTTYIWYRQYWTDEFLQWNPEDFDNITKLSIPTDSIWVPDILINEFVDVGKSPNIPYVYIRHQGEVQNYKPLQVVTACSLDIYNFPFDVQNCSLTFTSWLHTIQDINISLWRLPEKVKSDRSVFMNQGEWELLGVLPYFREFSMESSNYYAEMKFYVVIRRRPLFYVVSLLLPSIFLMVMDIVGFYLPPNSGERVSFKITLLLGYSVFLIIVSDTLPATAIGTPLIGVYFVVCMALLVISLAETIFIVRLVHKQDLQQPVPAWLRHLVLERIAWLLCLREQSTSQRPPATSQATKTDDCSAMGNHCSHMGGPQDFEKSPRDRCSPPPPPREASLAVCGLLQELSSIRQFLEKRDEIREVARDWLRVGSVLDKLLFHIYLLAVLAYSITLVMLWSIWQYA
Protocol: (§1) Binding and functional assays of CGAs with the proteins known to be pharmacological targets related to the CVS, CNS, and GI functions were conducted. […] In the binding assay, we measured the radiation activity of the solution containing filtered proteins that bound to the tested compound or high-affinity ligand, while in the functional assays, we measured the reaction product. The ability of the test compound to interact with the tested targets was measured as the inhibition of ligand binding to the target or reaction product production (% inhibition).

5-HT2B = 5-HT2B (Homo sapiens, UniProt P41595); assay: In vitro profiling, binding assay
Protocol: as §1

Dopamine D1 = Dopamine D1 (Homo sapiens, UniProt P21728); assay: In vitro profiling, binding assay
Protocol: as §1

Opiate μ = Opiate μ (Homo sapiens, UniProt P35372); assay: In vitro profiling, binding assay
Protocol: as §1

hERG potassium channel = hERG potassium channel (Homo sapiens, UniProt Q12809); assay: In vitro profiling, binding assay
Protocol: as §1

Histamine H2 = Histamine H2 (Homo sapiens, UniProt P25021); assay: In vitro profiling, binding assay
Protocol: as §1

[1] = target: Transporter, Norepinephrine (NET) (Homo sapiens, UniProt P23975); assay: In vitro profiling, binding assay
Protocol: as §1

5-HT1B = 5-HT1B (Homo sapiens, UniProt P28222); assay: In vitro profiling, binding assay
Protocol: as §1

Muscarinic M1 = target: T2, Muscarinic M1 (Homo sapiens, UniProt P11229); assay: In vitro profiling, binding assay
T2 sequence (P11229 1-460): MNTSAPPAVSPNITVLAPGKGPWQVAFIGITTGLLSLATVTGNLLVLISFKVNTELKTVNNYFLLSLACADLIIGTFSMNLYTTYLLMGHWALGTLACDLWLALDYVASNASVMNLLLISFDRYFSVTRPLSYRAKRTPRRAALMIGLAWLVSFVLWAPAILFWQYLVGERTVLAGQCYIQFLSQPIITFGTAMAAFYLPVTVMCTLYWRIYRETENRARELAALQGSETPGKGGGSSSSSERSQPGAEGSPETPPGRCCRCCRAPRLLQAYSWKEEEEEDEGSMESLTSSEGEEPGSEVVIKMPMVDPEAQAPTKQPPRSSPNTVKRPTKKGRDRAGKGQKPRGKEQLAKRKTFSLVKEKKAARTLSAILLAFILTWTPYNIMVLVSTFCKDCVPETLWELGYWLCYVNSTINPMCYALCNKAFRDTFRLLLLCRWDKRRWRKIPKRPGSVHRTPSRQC
Protocol: as §1

Adrenergic β1 = Adrenergic β1 (Homo sapiens, UniProt P08588); assay: In vitro profiling, binding assay
Protocol: as §1

rat hippocampal slices = assay: Electrophysiological assay of hippocampal slices, epileptiform discharge (ED) recording; conditions: ± SEM
Protocol: A hippocampal slice was placed on the multielectrode array (200 μm distant electrodes) to ensure the multi-electrode grid covered the major surface of the slice. […]
ED frequency (in Hz) was determined as follows: raw data were filtered with a Low Pass filter (Butterworth second order filter) set to 20 Hz. ED number was monitored on-line (epileptiform event amplitudes had to be higher than 15 μV to be counted; a dead time of 200 ms was applied for each epileptiform event detected). ED frequency was averaged using 30-s time intervals. Results are presented as mean frequency of ED for the last 2 min of each condition (± SEM).

[2] = tested on: isolated perfused guinea pig heart; assay: Langendorff perfused heart assay; conditions: for % change in LV dP/dt max from pre-application / % change in LVPSP from pre-application: mean ± SD, n = 3
Protocol: After injection of heparin sodium (100 unit/body, AY Pharmaceuticals Co., Ltd.) into the jugular vein, the animals were exsanguinated. […] A stainless-steel cannula was inserted in the aorta, followed by attachment to the Langendorff apparatus (Physio-Tech Co., Ltd., Tokyo, Japan). The attached heart was perfused with KH solution at 37.0 ± 0.2 °C. Before use, the KH solution was aerated by a gas mixture (95%O2 + 5%CO2) for 30 min or longer. The perfusion pressure was maintained at 70 mmHg.
DMSO solutions at 1, 10, and 100 mM were diluted 1000-fold with the KH solution to make test solutions of 1, 10, and 100 μM, respectively. The test solutions were cumulatively applied at a flow rate of 20 mL/min for 10 min with each concentration.
An ECG signal was recorded using electrodes fixed on the ventricular apex (+), and a stainless-steel cannula was inserted in the aorta (−), and LVP was recorded from the balloon catheter placed in the left ventricle. The ECG signals were amplified with an amplifier (DAM50; World Precision Instruments, Inc.) and LVPs were monitored with a Pressure Monitor 4 (Living Systems Instrumentation). Both of the waveforms were recorded with computer software (1000 Hz; iox2 and ecgAUTO3; emka Technologies).
Before measurement, the in-balloon pressure was adjusted so that the diastolic blood pressure would be in the range of 0 to 10 mmHg. The cardiac parameters, such as HR, PR interval, QRS duration, QT interval, QTc interval (Fridericia’s formula: QTc = QT/RR^1/3), LVPSP, left-ventricular end diastolic pressure (LVEDP), and LV dP/dt max, were measured.
Data are expressed as mean (± SD). The measured % changes from the pre-application value were used for analyses. Williams test was carried out between the solvent-control and test compound. Student’s t-test was carried out between the solvent-control and positive-control. […] The data from the solvent control and drug groups were tested by F test for homogeneity of variance. F test was performed at the significance level of 5%. When the variances were homogeneous, Student’s t-test was subsequently performed. When the variances were nonhomogeneous, Welch t-test was selected.

[3] = 30 µM, 5-HT3, read-out: % Inhibition
[4] = 30 µM, 5-HT2B, read-out: % Inhibition
[5] = 30 µM, Dopamine D1, read-out: % Inhibition
[6] = 30 µM, Opiate μ, read-out: % Inhibition
[7] = probe radioisotope-labeled high-affinity ligand (not named), 30 µM, Potassium Channel hERG, read-out: % Inhibition
[8] = 30 µM, Histamine H2, read-out: % Inhibition
[9] = 30 µM, Transporter, Norepinephrine (NET), read-out: % Inhibition
[10] = 30 µM, 5-HT1B, read-out: % Inhibition
[11] = 30 µM, Adrenergic β1, read-out: % Inhibition
[12] = 10 µM compound, co-exposure with 50 μM 4-AP

Chain of 5-HT1B (P28222 whole entry): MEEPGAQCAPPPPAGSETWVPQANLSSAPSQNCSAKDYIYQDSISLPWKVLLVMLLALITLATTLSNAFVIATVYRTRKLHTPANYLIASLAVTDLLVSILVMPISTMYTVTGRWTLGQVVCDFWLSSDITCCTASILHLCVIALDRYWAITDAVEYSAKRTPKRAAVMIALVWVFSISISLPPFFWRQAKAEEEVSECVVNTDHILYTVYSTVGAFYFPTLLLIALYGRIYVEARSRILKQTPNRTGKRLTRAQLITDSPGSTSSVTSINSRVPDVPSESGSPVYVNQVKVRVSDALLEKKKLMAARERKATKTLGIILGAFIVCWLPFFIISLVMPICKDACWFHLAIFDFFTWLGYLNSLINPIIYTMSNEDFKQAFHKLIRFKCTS
Chain of 5-HT2B (P41595 whole entry): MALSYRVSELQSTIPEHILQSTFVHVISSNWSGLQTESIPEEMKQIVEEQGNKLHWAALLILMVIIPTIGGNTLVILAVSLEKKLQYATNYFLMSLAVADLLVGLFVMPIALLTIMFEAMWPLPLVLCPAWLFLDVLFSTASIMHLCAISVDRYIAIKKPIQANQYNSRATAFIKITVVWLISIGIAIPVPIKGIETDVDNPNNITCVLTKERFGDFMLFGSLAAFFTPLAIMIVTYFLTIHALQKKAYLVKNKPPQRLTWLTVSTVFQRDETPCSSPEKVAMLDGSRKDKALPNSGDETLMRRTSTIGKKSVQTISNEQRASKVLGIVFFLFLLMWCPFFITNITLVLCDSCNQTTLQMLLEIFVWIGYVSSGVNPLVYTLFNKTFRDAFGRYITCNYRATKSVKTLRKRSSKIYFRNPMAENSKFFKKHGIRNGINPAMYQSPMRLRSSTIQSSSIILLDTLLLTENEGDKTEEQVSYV
Chain of hERG potassium channel (Q12809 whole entry): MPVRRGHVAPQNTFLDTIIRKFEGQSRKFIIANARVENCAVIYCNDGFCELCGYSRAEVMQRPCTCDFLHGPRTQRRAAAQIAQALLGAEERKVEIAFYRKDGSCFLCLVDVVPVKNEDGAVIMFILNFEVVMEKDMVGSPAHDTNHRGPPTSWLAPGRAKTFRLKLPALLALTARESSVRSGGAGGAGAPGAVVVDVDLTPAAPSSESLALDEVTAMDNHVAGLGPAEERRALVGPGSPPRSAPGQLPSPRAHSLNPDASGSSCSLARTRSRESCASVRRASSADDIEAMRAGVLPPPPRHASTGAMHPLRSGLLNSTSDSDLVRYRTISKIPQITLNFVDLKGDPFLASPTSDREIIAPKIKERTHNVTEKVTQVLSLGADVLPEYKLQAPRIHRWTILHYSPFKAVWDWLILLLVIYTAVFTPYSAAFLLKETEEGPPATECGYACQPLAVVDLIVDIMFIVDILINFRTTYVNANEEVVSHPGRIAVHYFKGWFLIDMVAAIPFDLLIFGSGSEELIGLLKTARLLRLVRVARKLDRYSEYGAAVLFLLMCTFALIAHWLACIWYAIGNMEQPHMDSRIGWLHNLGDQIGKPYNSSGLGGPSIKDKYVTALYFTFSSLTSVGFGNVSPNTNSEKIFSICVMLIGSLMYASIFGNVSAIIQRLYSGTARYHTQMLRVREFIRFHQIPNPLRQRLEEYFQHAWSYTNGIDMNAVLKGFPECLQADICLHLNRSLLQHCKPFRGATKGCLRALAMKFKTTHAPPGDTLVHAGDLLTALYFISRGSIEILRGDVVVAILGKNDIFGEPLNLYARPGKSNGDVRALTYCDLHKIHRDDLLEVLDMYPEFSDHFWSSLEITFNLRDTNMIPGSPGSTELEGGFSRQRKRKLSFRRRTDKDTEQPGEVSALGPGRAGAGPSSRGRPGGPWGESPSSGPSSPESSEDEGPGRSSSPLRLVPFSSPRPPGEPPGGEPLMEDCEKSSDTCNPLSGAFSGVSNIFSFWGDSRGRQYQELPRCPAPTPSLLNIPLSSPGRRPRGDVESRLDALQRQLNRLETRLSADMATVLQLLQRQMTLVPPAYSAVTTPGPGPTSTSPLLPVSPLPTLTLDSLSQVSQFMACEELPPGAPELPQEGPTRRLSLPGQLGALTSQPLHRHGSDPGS
Chain of Dopamine D1 (P21728 whole entry): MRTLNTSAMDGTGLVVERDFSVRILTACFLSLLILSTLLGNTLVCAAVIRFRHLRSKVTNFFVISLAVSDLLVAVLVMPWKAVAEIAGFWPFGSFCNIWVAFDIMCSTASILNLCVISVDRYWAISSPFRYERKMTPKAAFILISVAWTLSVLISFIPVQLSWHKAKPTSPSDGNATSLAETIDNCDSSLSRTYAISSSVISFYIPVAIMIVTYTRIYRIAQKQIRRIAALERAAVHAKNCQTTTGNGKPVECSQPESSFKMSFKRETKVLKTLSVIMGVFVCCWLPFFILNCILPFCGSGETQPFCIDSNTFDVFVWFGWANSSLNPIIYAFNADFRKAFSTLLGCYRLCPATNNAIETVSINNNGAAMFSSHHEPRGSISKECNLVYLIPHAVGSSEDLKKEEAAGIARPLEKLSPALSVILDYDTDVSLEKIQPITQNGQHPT
Chain of Adrenergic β1 (P08588 whole entry): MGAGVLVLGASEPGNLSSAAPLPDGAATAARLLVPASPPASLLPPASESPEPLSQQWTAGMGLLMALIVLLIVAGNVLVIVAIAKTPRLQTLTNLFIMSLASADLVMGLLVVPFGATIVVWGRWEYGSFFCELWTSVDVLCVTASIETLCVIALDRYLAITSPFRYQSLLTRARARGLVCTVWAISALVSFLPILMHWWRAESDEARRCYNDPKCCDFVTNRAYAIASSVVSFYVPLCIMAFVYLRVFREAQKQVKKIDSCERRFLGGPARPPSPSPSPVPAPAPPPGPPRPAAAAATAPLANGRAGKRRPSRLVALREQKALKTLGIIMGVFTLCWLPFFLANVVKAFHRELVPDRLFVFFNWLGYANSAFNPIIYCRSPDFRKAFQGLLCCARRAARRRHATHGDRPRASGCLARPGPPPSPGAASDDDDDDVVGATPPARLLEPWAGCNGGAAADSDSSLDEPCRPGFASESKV
Chain of Histamine H2 (P25021 whole entry): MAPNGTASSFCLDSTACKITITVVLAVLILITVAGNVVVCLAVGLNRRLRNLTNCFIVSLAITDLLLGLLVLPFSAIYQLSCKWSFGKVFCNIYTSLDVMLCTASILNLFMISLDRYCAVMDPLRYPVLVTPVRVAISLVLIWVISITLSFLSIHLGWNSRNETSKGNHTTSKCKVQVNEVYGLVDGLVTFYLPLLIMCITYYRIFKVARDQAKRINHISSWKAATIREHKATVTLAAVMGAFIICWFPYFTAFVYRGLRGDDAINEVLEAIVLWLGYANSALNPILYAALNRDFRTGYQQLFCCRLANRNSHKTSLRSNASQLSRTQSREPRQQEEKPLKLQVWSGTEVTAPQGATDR
Chain of Opiate μ (P35372 whole entry): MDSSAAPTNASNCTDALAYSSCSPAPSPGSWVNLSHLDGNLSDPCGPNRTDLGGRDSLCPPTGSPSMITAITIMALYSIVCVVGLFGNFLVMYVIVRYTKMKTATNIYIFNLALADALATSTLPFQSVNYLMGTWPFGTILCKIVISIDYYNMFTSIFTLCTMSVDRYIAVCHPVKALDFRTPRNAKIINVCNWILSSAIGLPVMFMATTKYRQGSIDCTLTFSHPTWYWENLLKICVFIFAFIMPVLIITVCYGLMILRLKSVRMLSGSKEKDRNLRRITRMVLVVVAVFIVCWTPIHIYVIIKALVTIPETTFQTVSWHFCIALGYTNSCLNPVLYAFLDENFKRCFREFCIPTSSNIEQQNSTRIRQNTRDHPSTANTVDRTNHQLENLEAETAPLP
Chain of Transporter, Norepinephrine (NET) (P23975 whole entry): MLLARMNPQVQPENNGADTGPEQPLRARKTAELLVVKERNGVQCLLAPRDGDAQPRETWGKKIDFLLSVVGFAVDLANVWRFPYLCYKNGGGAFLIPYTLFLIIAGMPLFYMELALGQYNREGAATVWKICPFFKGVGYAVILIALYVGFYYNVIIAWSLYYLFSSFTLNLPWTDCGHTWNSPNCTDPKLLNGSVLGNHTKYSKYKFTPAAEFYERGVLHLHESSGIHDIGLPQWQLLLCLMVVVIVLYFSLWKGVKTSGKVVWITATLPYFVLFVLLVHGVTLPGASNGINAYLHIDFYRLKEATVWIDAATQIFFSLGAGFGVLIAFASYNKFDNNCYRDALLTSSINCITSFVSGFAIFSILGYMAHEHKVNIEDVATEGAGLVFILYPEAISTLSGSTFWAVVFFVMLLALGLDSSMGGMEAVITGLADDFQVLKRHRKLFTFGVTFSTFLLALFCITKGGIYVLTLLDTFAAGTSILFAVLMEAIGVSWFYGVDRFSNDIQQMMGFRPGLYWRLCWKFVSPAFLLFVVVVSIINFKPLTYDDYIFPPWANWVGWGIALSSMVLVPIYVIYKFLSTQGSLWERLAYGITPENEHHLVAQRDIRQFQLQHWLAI

Structure (SMILES) | inhibition at 30 µM (5-HT3; [3]) | inhibition at 30 µM (5-HT2B; [4]) | inhibition at 30 µM (Dopamine D1; [5]) | inhibition at 30 µM (Opiate μ; [6]) | inhibition at 30 µM (hERG potassium channel; [7]) | inhibition at 30 µM (Histamine H2; [8]) | inhibition at 30 µM [1, 9] | inhibition at 30 µM (5-HT1B; [10]) | inhibition at 30 µM (Muscarinic M1) | inhibition at 30 µM (Adrenergic β1; [11]) | ED rate (rat hippocampal slices; [12]) | % change in LV dP/dt max from pre-application ([2]; 100 μM) | % change in LVPSP from pre-application ([2]; 100 μM) | also measured
O=C(/C=C/c1ccc(O)c(O)c1)O[C@H]1C[C@@](O)(C(=O)O)C[C@H](O)[C@@H]1O [5-CQA, 5-O-caffeoylquinic acid] | -9% | -16% | 7% | 8% | 3% | 0% | -3% | -1% | 0% | -1% | 0.38 ± 0.04 Hz | −12.0 ± 6.2% and −12% | −8.5 ± 6.2% | –
COc1cc(/C=C/C(=O)O[C@H]2C[C@@](O)(C(=O)O)C[C@H](O)[C@@H]2O)ccc1O [5-FQA, 5-O-feruloylquinic acid] | -3% | -5% | 22% | 5% | 6% | -5% | -1% | -10% | – | -4% | 0.46 ± 0.05 Hz | – | – | inhibition at 30 µM (Muscarinic M1; 30 µM, Muscarinic M1, read-out: % Inhibition): -5%
COc1cc(/C=C/C(=O)O)ccc1O [FA, ferulic acid] | – | – | – | – | – | – | – | – | – | – | 0.41 ± 0.04 Hz | – | – | inhibition at 30 µM (5-HT3): -13%; inhibition at 30 µM (5-HT2B): 5%; inhibition at 30 µM (Dopamine D1): -1%; inhibition at 30 µM (Opiate μ): 4%; inhibition at 30 µM (hERG potassium channel; 30 µM, Potassium Channel hERG, read-out: % Inhibition): 7%; inhibition at 30 µM (Histamine H2): -5%; inhibition at 30 µM [1]: 2%; inhibition at 30 µM (5-HT1B): 4%; inhibition at 30 µM (Adrenergic β1): -2%; Effect on LVP ([2]; at 100 μM): did not affect; Change in ECG parameters compared to solvent control ([2]; until 100 µM): no significant change
O=C(O)/C=C/c1ccc(O)c(O)c1 [CA, caffeic acid] | – | – | – | – | – | – | – | – | 5% | – | 0.55 ± 0.07 Hz | −8.8 ± 0.8% | −6.2 ± 0.9% | % Inhibition (5-HT3; 30 µM, 5-HT3): −5%; % Inhibition (5-HT2B; 30 µM, 5-HT2B): 1%; % Inhibition (Dopamine D1; 30 µM, Dopamine D1): 5%; % Inhibition (Opiate μ; 30 µM, Opiate μ): −6%; inhibition at 30 µM (hERG potassium channel): -19%; % Inhibition (Histamine H2; 30 µM, Histamine H2): −6%; % Inhibition ([1]; 30 µM, Transporter, Norepinephrine (NET)): 0%; % Inhibition (5-HT1B; 30 µM, 5-HT1B): 3%; % Inhibition (Adrenergic β1; 30 µM, Adrenergic β1): 3%; ED rate (rat hippocampal slices; follow-up test, 1 µM compound, co-exposure with 4-AP): 0.35 ± 0.03 Hz; % change in LV dP/dt max from pre-application ([2]; 10 μM): −6.5 ± 1.6%; % change in LVPSP from pre-application ([2]; 10 μM): −4.3 ± 0.8%
